Bridges are numbered along the chain shown (N, C = ends). Where no end group is shown, it is not given here.
Columns and labels:
[1] = tested on: MIA PaCa-2 human pancreatic cancer cell line; conditions: ref Liebow et al., 1989; cited from earlier work
Description: (§1) Br. J. Cancer (1994). 70, 886 892 ? Macmillan Press Ltd..

[2] = tested on: human SCLC cell line NCI-H69; experiment: Growth of H69 SCLC xenografts in nude mice; format: in vivo, human (xenograft in male athymic nude mice); conditions: for Tumour weight: antagonists 20 µg/day per animal, control 0.27 ? 0.19; for Tumour doubling time: antagonists 20 µg/day per animal s.c., control 7.5; for Growth of H69 SCLC tumours (in words): s.c. peritumorally, bombesin/GRP antagonists 20 µg per animal per day
Description: (§2) Br. J. Cancer (1994). 70, 886 892 ? Macmillan Press Ltd.. […] Bombesin GRP antagonists. […] Lung carcinoma is the leading cause of cancer-related deaths in the western world. It is estimated that in 1992 there were approximately 168,000 new cases of lung cancer in the US and that about 146,000 deaths occurred from this disease (Boring et al., 1992). […] The growth factors such as bombesin/gastrin-releasing pep- tide (GRP), epidermal growth factor, (EGF), transforming growth factor a (TGF-x) and insulin-like growth factor I(IGF-I) appear to play a role in the proliferation and pro- gression of lung cancer (Cuttitta et al., 1985; Veale et al., 1987; Minuto et al., 1988; Siegfried & Owens, 1988; Macaulay et al., 1990; Tateishi et al., 1991; Damstrup et al., 1992; Sethi & Rozengurt, 1992; Rabiasz et al., 1992; Moody & Cuttitta, 1993). […] Tpi is 2,3,4,9-tetrahydro- Correspondence: A.V. Schally (151). VA Medical Center, 1601 Per- dido Street. New Orleans, LA 70146. USA. Received 1 March 1994; and in revised form 5 July 1994. Br. J. Cancer (1994), 70, 886-892 C Macmillan Press Ltd., 1994 PEPTIDE ANALOGUES IN LUNG CANCER 8U7 lH-pyrido [3,4bjindol-3-carboxylic acid, a conformationally constrained secondary amine derivate of tryptophan and Tac is thiazolidine-4-carboxylic acid. […] Animals Male athymic NCr nulmu nude mice, approximately 6 weeks old on arrival, were obtained from the NCI (Bethesda, MD, USA) and maintained under pathogen-limited conditions. Cell lines The human SCLC cell line NCI-H69, was obtained from the American Type Cell Culture (ATCC), Rockville, MD, USA and the non-SCLC cell line NCI-H157, from Dr H. Oie, NCI-Navy Medical Oncology Branch, Bethesda, MD, USA. These cell lines were cultured in RPMI-1640 medium supple- mented with 4 mM L-glutamine, 50 units ml-I penicilln G sodium, SOigml-' streptomycin sulphate, 0.125pgml-' amphotericin B and 10% fetal bovine serum at 3TC in a humidified 95% air/5% carbon dioxide atmosphere. CeLs were passaged weekly and routinely monitored for myco- plasma contamination using a detection kit (Boehringer- Mannheim, Mannheim, Germany). All culture media com- ponents were purchased from Gibco (Grand Island, NY, USA). Receptor assays Preparation of membranes for receptor studies was described previously (Halmos et al., 1993). Iodinated EGF and IGF-I were purchased from Amersham (Arlington Heights, IL, USA). Radioiodination of other peptides and receptor bind- ing of EGF, IGF-I, somatostatin and bombesin/GRP were performed as previously described (Srkalovic et al., 1989; Szepeshazi et al., 1992). Complete displacement assays on tumour membranes were done only once because of the shortage of tumour material. The LIGAND PC computerised curve-fitting programme of Munson and Rodbard (1980) was used to determine the types of receptor binding, dissociation constant (Kd) values, and the maximal binding capacity (BDj) of receptors. In order to determine the specificity of the binding sites for radiolabelled EGF, IGF-I, somatostatin and bombesin to lung cancer membranes, various structuraly related and unrelated peptides were tested for their ability to inhibit the binding of the tracers. Histological procedure The histological procedures were the same as described previously (Szepeshazi et al., 1991, 1992). The number of mitotic and apoptotic cells per 1,000 cells was determined, and the percentage area of necrosis in tumour sections was examined using the point-counting method (Szepeshazi et al., 1991, 1992), in which the crossing points of an ocular net that coincide with necrosis in various sections are counted. Radiommunoassays Serum levels of growth hormone were determined by double- antibody radioimmunoassay (RIA) using materials supplied by the National Hormone and Pituitary Program of the National Institute of Diabetes and Digestive and Kidney Diseases (NIDDK).

[3] = Body weight of tumour-bearing nude mice; conditions: Table I, Experiment I (SCLC-H69), end of experiment; control 26.3 ? 2.3; means ? s.d.
Description: Br. J. Cancer (1994). 70, 886 892 ? Macmillan Press Ltd.. […] Bombesin GRP antagonists. […] Lung carcinoma is the leading cause of cancer-related deaths in the western world. It is estimated that in 1992 there were approximately 168,000 new cases of lung cancer in the US and that about 146,000 deaths occurred from this disease (Boring et al., 1992). […] CeLs were passaged weekly and routinely monitored for myco- plasma contamination using a detection kit (Boehringer- Mannheim, Mannheim, Germany). […] The number of mitotic and apoptotic cells per 1,000 cells was determined, and the percentage area of necrosis in tumour sections was examined using the point-counting method (Szepeshazi et al., 1991, 1992), in which the crossing points of an ocular net that coincide with necrosis in various sections are counted. Radiommunoassays Serum levels of growth hormone were determined by double- antibody radioimmunoassay (RIA) using materials supplied by the National Hormone and Pituitary Program of the National Institute of Diabetes and Digestive and Kidney Diseases (NIDDK).

[4] = Serum gastrin radioimmunoassay in nude mice; format: in vivo; conditions: Table III, Experiment I (SCLC H-69), after treatment; double-antibody RIA; control 130.0 ? 10.8; means ? s.e.; **P < 0.01 vs control
[5] = tested on: EGF receptors in membranes of SCLC H69 tumours; experiment: EGF receptor binding on H69 tumour membranes after in vivo treatment; parameters: species or system human; conditions: Table IV, Experiment I (SCLC-H69); tumour membranes after in vivo treatment; control 278; ten-point displacement in triplicate tubes, done once
Description: as §2, with “In order to determine the specificity of the binding sites for radiolabelled EGF, IGF-I, somatostatin and bombesin to lung cancer membranes, various structuraly related and unrelated peptides were tested for their ability to inhibit the binding of the tracers. Histological procedure The histological procedures were the same as described previously (Szepeshazi et al., 1991, 1992).” left out

[6] = tested on: IGF-I receptors in membranes of SCLC H69 tumours; experiment: IGF-I receptor binding on H69 tumour membranes after in vivo treatment; parameters: species or system human; conditions: Table IV, Experiment I (SCLC-H69), control 294, done once
Description: as §2, with “Receptor assays Preparation of membranes for receptor studies was described previously (Halmos et al., 1993). Iodinated EGF and IGF-I were purchased from Amersham (Arlington Heights, IL, USA). Radioiodination of other peptides and receptor bind- ing of EGF, IGF-I, somatostatin and bombesin/GRP were performed as previously described (Srkalovic et al., 1989; Szepeshazi et al., 1992). Complete displacement assays on tumour membranes were done only once because of the shortage of tumour material. The LIGAND PC computerised curve-fitting programme of Munson and Rodbard (1980) was used to determine the types of receptor binding, dissociation constant (Kd) values, and the maximal binding capacity (BDj) of receptors. In order to determine the specificity of the binding sites for radiolabelled EGF, IGF-I, somatostatin and bombesin to lung cancer membranes, various structuraly related and unrelated peptides were tested for their ability to inhibit the binding of the tracers. Histological procedure The histological procedures were the same as described previously (Szepeshazi et al., 1991, 1992).” left out

[7] = tested on: Bombesin/GRP receptors in membranes of SCLC H69 tumours; experiment: Bombesin/GRP receptor binding on H69 tumour membranes after in vivo treatment; parameters: species or system human; conditions: for Concentration of receptors for bombesin/GRP on H69 tumours (in words): after in vivo treatment
Description: as §2, with “In order to determine the specificity of the binding sites for radiolabelled EGF, IGF-I, somatostatin and bombesin to lung cancer membranes, various structuraly related and unrelated peptides were tested for their ability to inhibit the binding of the tracers. Histological procedure The histological procedures were the same as described previously (Szepeshazi et al., 1991, 1992).” left out

[8] = tested on: Somatostatin receptors in membranes of SCLC H69 tumours; experiment: Somatostatin receptor binding on H69 tumour membranes after in vivo treatment; parameters: species or system human; conditions: Table IV, Experiment I (SCLC-H69); tumour membranes after in vivo treatment; control 450; done once
Description: as §2, with “In order to determine the specificity of the binding sites for radiolabelled EGF, IGF-I, somatostatin and bombesin to lung cancer membranes, various structuraly related and unrelated peptides were tested for their ability to inhibit the binding of the tracers. Histological procedure The histological procedures were the same as described previously (Szepeshazi et al., 1991, 1992).” left out

[9] = tested on: EGF receptors; conditions: various cancer lines and cancer specimens; ref Liebow et al., 1992; cited from earlier work
Description: as §1

[10] = tested on: SCLC H69 tumours; experiment: Histology (mitosis, apoptosis, necrosis) of SCLC H69 tumours; format: in vivo, human (xenograft in nude mice)
Description: as §2

[11] = Table I, Experiment I (SCLC-H69), 5 weeks s.c. peritumoral, RC-160 100 µg/day, means ? s.d., *P<0.05 vs control
[12] = Table I, Experiment I (SCLC-H69), 5 weeks, RC-160 100 µg/day
[13] = H69 SCLC xenografts, as compared with control group, RC-160 100 µg, RC-3950-II 20 µg per animal per day s.c. peritumorally, 5 weeks

Row | Substance | Tumour weight [2, 11] | Tumour doubling time [2, 12] | Growth of H69 SCLC tumours (in words) ([2]; RC-160 100 µg, 5 weeks) | EGF maximal binding capacity (Bmax) [5] | IGF-I maximal binding capacity (Bmax) [6] | Concentration of receptors for bombesin/GRP on H69 tumours (in words) [7] | Somatostatin maximal binding capacity (Bmax) [8] | also measured
1 | somatostatin: native peptide somatostatin (AGCKNFFWKTFTSC; disulfide 3-14; ends not checked; UniProt P61278 103-116, looked up) [reference compound] |  |  |  |  |  |  |  | Effect on EGF-stimulated cell growth (in words) [1]: reversed the stimulatory effect of EGF; Effect on EGF-stimulated phosphorylation of the tyrosine kinase domain of the EGF receptors (in words) [1]: reversed the stimulatory effect of EGF
2 | [Tpi6, Leu'3*(CH2N)Tpi'4 bombesin (6-16) [RC-3440] | 0.076 ± 0.04* g | 12.1 days | inhibited the growth of H69 SCLC tumours | 134 fmol mg' protein | 255 fmol mg' protein | markedly dereased | 501 fmol mg-'protein | Tumour volume, final ([2]; Table I, Experiment I (SCLC-H69), 5 weeks s.c. peritumoral, RC-160 100 µg/day, RC-3440, RC-3095, RC-3950-II 20 µg/day per animal, control 249.7 ? 182.3, means ? s.d., ten animals per group, *P<0.05 vs control): 74.1 mm³; Body weight [3]: 26.2 ± 1.3 g; Serum gastrin [4]: 92.7 8.2 pg ml'; Bombesin/GRP maximal binding capacity (Bmax) ([7]; Table IV, Experiment I (SCLC-H69), tumour membranes after in vivo treatment, control 420, done once): 255 fmol mg-'protein
3 | gastrin-releasing peptide (VPLPAGGGTVLTKMYPRGNHWAVGHLM; ends and bridges not checked; UniProt P07492 24-50, looked up) [GRP] |  |  |  |  |  |  |  | Effect on phosphorylation of EGF receptors (in words) [9]: enhance the phosphorylation of EGF receptors
4 | [D-Phe6, Leu'3*(CH,N)Tac'1 bombesin (6-14) [RC-3950-II] | 0.03 0.03* g | 16.8 days | greatest inhibitory effect | 93 fmol mg' protein | 226 fmol mg' protein | reduced to non-detectable levels | 390 fmol mg-'protein | Reduction in tumour volumes [2, 13]: more than 80%; Reduction in tumour weights [2, 13]: more than 80%; Extent of necrosis (in words) ([10]; SCLC H69 tumours, point-counting method, differences from control not significant statistically): less exten- sive; Apoptotic index ([10]; Table II, Experiment I (SCLC H69), apoptotic cells per 1,000 cells, control 35.4 ? 2.6, means ? s.e.): 41.5; Mitotic index ([10]; Table II, Experiment I (SCLC H69), mitotic cells per 1,000 cells, control 37.9 ? 2.9, means ? s.e., *P < 0.05 vs control): 49.8

From paper PMC2033546, “Effects of somatostatin analogue RC-160 and bombesin/gastrin-releasing peptide antagonists on the growth of human small-cell and non-small-cell lung carcinomas in nude mice” (British Journal of Cancer, 1994)
